Experimental data reported in PubChem BioAssay (NCI).
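Step 1: Grow cells in 96-well plates. Step 2: Expose to compound for 48 hours at 5 concentrations. Step 3: Interpolate endpoints linearly; if unreached, use highest concentration. GI50 is the concentration that inhibits growth by half. Definition used: TGI = concentration required for complete inhibition of growth.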

What was measured:
Experiment in all cases: NCI tumour cell line growth inhibition, 48 h
TK-10 renal = system: TK-10 renal
RXF 393 renal = system: RXF 393 renal
A549 NSCLC = system: A549 NSCLC
UACC-62 melanoma = system: UACC-62 melanoma
OVCAR-4 ovarian = system: OVCAR-4 ovarian
SN12C renal = system: SN12C renal
M14 melanoma = system: M14 melanoma
KM20L2 colon = system: KM20L2 colon
MOLT-4 leukemia = system: MOLT-4 leukemia
HT29 colon = system: HT29 colon

SMILES	GI50 (TK-10 renal) [µM]	TGI (TK-10 renal) [µM]	GI50 (RXF 393 renal) [µM]	TGI (RXF 393 renal) [µM]	GI50 (A549 NSCLC) [µM]	TGI (A549 NSCLC) [µM]	GI50 (UACC-62 melanoma) [µM]	TGI (UACC-62 melanoma) [µM]	GI50 (OVCAR-4 ovarian) [µM]	TGI (OVCAR-4 ovarian) [µM]	GI50 (SN12C renal) [µM]	TGI (SN12C renal) [µM]	GI50 (M14 melanoma) [µM]	TGI (M14 melanoma) [µM]	GI50 (KM20L2 colon) [µM]	TGI (KM20L2 colon) [µM]	GI50 (MOLT-4 leukemia) [µM]	TGI (MOLT-4 leukemia) [µM]	GI50 (HT29 colon) [µM]	TGI (HT29 colon) [µM]
O=C([CH-]C(=O)c1ccccc1)c1ccccc1.[C-]#[O+].[C-]#[O+].[Ir]	> 100	> 100	33.6	> 100	82.9	> 100	42.1	> 100	> 100	> 100	48.3	> 100	54.3	> 100	39.7	> 100	56.7	> 100	63.5	> 100
Cc1cc(N(CCC#N)S(=O)(=O)c2ccccc2)ccc1C=Nc1cccc(C(=O)O)c1	–	> 100	–	> 100	–	> 100	–	> 100	–	> 100	–	> 100	–	> 100	–	> 100	–	> 100	–	> 100
